Experiment [1] deals with T1, 5-hydroxytryptamine receptor 3A (Homo sapiens) (UniProt P46098).
T1 sequence (whole entry): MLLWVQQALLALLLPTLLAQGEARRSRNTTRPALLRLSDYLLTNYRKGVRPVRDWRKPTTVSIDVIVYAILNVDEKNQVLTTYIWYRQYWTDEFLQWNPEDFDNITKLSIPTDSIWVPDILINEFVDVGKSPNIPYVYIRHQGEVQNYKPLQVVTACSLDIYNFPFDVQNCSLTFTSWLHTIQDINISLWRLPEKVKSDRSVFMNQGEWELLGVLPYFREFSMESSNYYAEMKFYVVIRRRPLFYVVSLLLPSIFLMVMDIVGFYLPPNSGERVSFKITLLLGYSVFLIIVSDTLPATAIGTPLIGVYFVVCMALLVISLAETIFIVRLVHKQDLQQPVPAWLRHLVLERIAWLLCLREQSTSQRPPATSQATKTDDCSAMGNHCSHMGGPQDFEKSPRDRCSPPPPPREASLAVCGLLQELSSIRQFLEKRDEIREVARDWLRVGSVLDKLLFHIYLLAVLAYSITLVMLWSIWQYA
The experiment can be described thus: Inhibition of 5HT3 receptor at 25 uM.

The target in experiment [2] is 5-hydroxytryptamine receptor 2B (Homo sapiens, UniProt P41595). The experiment can be described thus: Inhibition of human 5HT2B receptor expressed in cos-7 cells assessed as [3H]5-HT […] after 120 mins. The experiment is classed as cell-based.
Chain of 5-hydroxytryptamine receptor 2B (P41595 whole entry): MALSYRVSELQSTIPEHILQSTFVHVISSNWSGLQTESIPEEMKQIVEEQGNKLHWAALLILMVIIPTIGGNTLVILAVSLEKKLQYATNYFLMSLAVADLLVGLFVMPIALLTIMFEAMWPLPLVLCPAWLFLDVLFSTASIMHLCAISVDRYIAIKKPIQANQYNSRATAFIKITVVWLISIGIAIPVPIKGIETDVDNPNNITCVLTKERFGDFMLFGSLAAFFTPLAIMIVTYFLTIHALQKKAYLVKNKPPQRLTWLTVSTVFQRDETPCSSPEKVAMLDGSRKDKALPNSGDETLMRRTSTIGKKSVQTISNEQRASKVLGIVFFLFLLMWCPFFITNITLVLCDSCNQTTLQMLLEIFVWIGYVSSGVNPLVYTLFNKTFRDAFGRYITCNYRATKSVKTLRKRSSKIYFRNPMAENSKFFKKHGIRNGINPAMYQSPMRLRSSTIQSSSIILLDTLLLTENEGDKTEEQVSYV
The test system of another experiment is HeLa. The experiment can be described thus: Cytotoxicity against human HeLa cells. Format: functional, cell-based.
Experiment [3] has as its target T2, 5-hydroxytryptamine receptor 1A (Homo sapiens) (UniProt P08908).
T2 sequence (whole entry): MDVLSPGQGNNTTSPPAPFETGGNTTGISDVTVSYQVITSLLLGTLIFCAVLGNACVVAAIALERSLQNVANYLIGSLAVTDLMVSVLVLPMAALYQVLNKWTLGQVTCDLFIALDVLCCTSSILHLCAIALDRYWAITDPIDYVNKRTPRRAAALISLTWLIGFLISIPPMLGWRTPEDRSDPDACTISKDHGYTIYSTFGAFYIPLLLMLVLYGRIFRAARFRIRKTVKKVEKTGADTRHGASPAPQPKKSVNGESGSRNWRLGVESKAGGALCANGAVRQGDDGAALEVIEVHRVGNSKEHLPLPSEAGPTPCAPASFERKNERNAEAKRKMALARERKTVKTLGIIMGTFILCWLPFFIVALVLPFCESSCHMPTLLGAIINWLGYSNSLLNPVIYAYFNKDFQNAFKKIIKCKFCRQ
The experiment can be described thus: Inhibition of 5HT1A receptor at 25 uM.

pIC50, pKi: −log10 of the molar value. The source made the active and inactive calls. The rule behind the calls is not given here.

As usually defined, the pIC50 is the IC50 on a negative log10 scale, so that one unit is a factor of ten. A word on the pKi: it is the Ki on a negative log10 scale, so that one unit is a factor of ten. In the case of `CC/C=C1\C[C@H]2CNc3ccccc3C(=O)N2C1` [USABAMYCIN C], the inhibition result in experiment [1] and in experiment [3] was “inactive” throughout. For the same molecule, the negative-log IC50 (pIC50) in experiment [2] is 5.08; in the experiment with HeLa it was 3.99. The pKi in experiment [2] is 5.28.
Regarding `CC/C=C1\C[C@H]2CNc3c(OC)cccc3C(=O)N2C1` [USABAMYCIN A], the inhibition entry in experiment [1] and in experiment [3] was “inactive” throughout. In addition, the values for the pIC50 (in experiment [2]; with HeLa) were 4.91 and 3.97, respectively. The pKi in experiment [2] was 5.10.
In the case of `C/C=C1\C[C@H]2CNc3c(OC)cccc3C(=O)N2C1` [USABAMYCIN B], the inhibition result in experiment [1] and in experiment [3] was “inactive” throughout. The negative logarithm of the IC50 (pIC50) in experiment [2] was 5.07; in the experiment on HeLa it was 3.99. Further, the pKi in experiment [2] is 5.27.

Values taken from ChEMBL document CHEMBL1921715, “Usabamycins A-C: new anthramycin-type analogues from a marine-derived actinomycete” (Bioorg Med Chem Lett, 2011).
